The record followed here is US20140123342A1, “Regulation of Stomatal Apertures by Apyrases and Extracellular Nucleotides” (BOARD OF REGENTS, THE UNIVERSITY OF TEXAS SYSTEM, priority 2011, published 2014).

Assay type in all cases: cell-based, Arabidopsis thaliana
For experiment [1], the system named is stomata of nia1nia2 mutant leaves. The experiment is described as follows: Stomatal closing studies with whole leaves of nia1nia2 mutant. The conditions noted are these: 10 μM. On the procedure: (§1) Stomatal Aperture Studies: Arabidopsis thaliana ecotypes Columbia (Col-0) and Wassilewskija (WS) were used as wild types in this study. Col-0, nia1nia2, atrbohD/F, R2-4A and WS plants were all grown on autoclaved Metro-Mix 200 soil at 22° C. under continuous light. The mutant seeds nia1nia2 nia2-5; CS 2356; Col-0 background) were obtained from Dr. N. M. Crawford (University of California at San Diego) and the mutant seeds atrbohD/F (Col-0 background) were obtained from Dr. J. M. Kwak (University of Maryland). The RNAi mutant apyrase line (R2-4A) is in WS background, so WS ecotype was used as the control wild type for these studies. […]
(§2) After treatment, photos of stomata were taken using a light microscope at 20×. Stomatal aperture width was measured using the image processing software ImageJ. Typically, photos were taken of 70 to 90 stomata per treatment of which only 50 stomata were measured for each treatment. For each treatment the ratio of closed stomata (width of 0) to open stomata was determined for all stomata imaged and this ratio was maintained in the 50 stomata that were measured for each treatment. Data shown uses apertures determined as width/length, however data in all studies also obtained as width only and generally width/length and width only data are in agreement with each other. […]

Experiment [2] relates to stomata (guard cells) in epidermal peels. The experiment can be described thus: Stomatal aperture closure studies, epidermal peels in the light. Conditions: 10 μM, epidermal peels, light, 1 h. On the procedure: (§3) Stomatal Aperture Studies: Arabidopsis thaliana ecotypes Columbia (Col-0) and Wassilewskija (WS) were used as wild types in this study. Col-0, nia1nia2, atrbohD/F, R2-4A and WS plants were all grown on autoclaved Metro-Mix 200 soil at 22° C. under continuous light. The mutant seeds nia1nia2 nia2-5; CS 2356; Col-0 background) were obtained from Dr. N. M. Crawford (University of California at San Diego) and the mutant seeds atrbohD/F (Col-0 background) were obtained from Dr. J. M. Kwak (University of Maryland). The RNAi mutant apyrase line (R2-4A) is in WS background, so WS ecotype was used as the control wild type for these studies. Leaves from 2 to 3 week old Col-0 plants, or R2-4A and WS plants treated with 4 μM estradiol for 1 week after development of mature basal leaves were used for peel and whole leaf studies. Plants were placed in the dark and watered 24 h before an study. For opening studies, plants were used immediately after 24 h dark treatment and all treatments were done in the dark except for the light treated leaves or peels, thus the control stomata are dark controls. For closure studies, plants were placed in the light 3 h before an study to induce stomatal opening and all treatments were done in the light, thus the control stomata are light controls. For peel studies, epidermal peels were made from the underside of the leaf and treatments were applied to the peels for 1 h. For whole leaf studies, leaves were removed and treatments were applied for 2 h. For each treatment, about 3 or 4 peels collected from different leaves or 3 or 4 different leaves of at least two different plants were floated with the abaxial side up in petri dishes on 3 mL of Arabidopsis leaf buffer consisting of 10 mM KCl, 25 mM MES pH 6.15 (Melotto et al., 2006) and the chemical being tested. For whole leaf studies peels were collected after the treatment.
(§4) For studies testing the effects of ATPγS, ADPγS, AMPS, RB2, and PPADS (Sigma, St. Louis, Mo., USA) 20 mM stocks were made by dissolving the compounds in de-ionized water. For studies testing the effects of apyrase inhibitors, 7.5 mg/mL of NGXT191 and of inhibitor #13 (Windsor et al., 2002) was dissolved in dimethyl sulfoxide (DMSO) and then applied at a dilution of […] for a final concentration of 0.1% DMSO. ABA (Sigma, St. Louis, Mo., USA) was dissolved in ethanol in 10 mM stocks and then applied at a dilution of 1:1000. The stocks were stored at −20° C. while not in use. The production of the anti-AtAPY1 antibodies used is described by Steinebrunner et al. (2003). The crude immune and pre-immune sera were purified using protein A-Sepharose following the protocol described by Martin (1982) with the slight modification that the buffers used were azide-free. The protein-A purified sera were both used at a 1:1000 dilution in leaf stomatal aperture studies. The concentration of the immune and pre-immune sera, determined by Bradford assay (Bio-Rad), was 10.2 μg/mL and 7.7 μg/mL, respectively.
(§5) After treatment, photos of stomata were taken using a light microscope at 20×. Stomatal aperture width was measured using the image processing software ImageJ. Typically, photos were taken of 70 to 90 stomata per treatment of which only 50 stomata were measured for each treatment. For each treatment the ratio of closed stomata (width of 0) to open stomata was determined for all stomata imaged and this ratio was maintained in the 50 stomata that were measured for each treatment. Data shown uses apertures determined as width/length, however data in all studies also obtained as width only and generally width/length and width only data are in agreement with each other. Statistical significance of the measurements for the treatments was determined using the Student's t test in Microsoft Excel.

The test system of experiment [3] is stomata of atrbohD/F mutant leaves. The experiment can be described thus: Stomatal closing studies with whole leaves of atrbohD/F mutant. Conditions: 10 μM. On the procedure:
as §1, §2

The next experiment relates to H2O2 in guard cells. The experiment can be described thus: Detection and quantification of H2O2 (H2DCFDA fluorescence). The conditions noted are these: 10 μM, leaf epidermal tissue, after 30 min. On the procedure: (§6) Detection and Quantification of H2O2 and NO: Col-0 plants were grown on soil for 2 to 4 weeks under continuous light at 21° C. Plants were placed in the dark for 24 h to ensure closure and then transferred to the light for 1 h. After 1 h in the light, mature basal leaves were excised and blended in a Waring blender on the low setting for approximately 10 s to isolate epidermal tissues, and the tissues were placed in 3 mL of 30 mM KCl, 10 mM Mes-KOH, pH 6.16 buffer in light for 2 h (Pei et al., 2000; Murata et al., 2001). DAF-2 DA and H2DCFDA were dissolved in DMSO to produce 5 mM and 10 mM stock solutions, respectively, and these were stored at −20° C. in 30 μL, aliquots. Fifty μM H2DCFDA or 15 μM DAF-2 DA was added to the medium in the dark, and after 30 min, 10 μM ABA, 200 μM ATPγS, or buffer (ATP control) was also added to the medium in the dark for 30 min. Peels were then rinsed by decanting the treatment solution and adding 3 mL fresh leaf buffer to the peels. Peels were rinsed twice as described. A peel from each of the three treatments (ABA, ATPγS and buffer) were placed on the same microscope slide and observed sequentially. A second study was staggered 30 to 45 min after the first by loading the H2DCFDA or DAF-2 DA dye to new peels 30 to 45 min after the first round of dye was added. Confocal laser scanning microscopy (CLSM) was performed with a Leica SP2 AOBS confocal microscope (Leica Microsystems, Bannockburn, Ill., USA). Laser power was set at 15%, with an excitation of 488 nm and an emission of 525 nm. A series of 0.5 μm optical sections with average intensity projection along the z axis were collected and made into one 2D image with greater focal depth. All images were obtained with the same software scanning settings including detector gain and laser intensity settings.

The test system of experiment [4] is stomata (guard cells) in whole leaves. The experiment can be described thus: Stomatal aperture closure studies, whole leaves in the light. The conditions noted are these: 10 μM, 2 h. On the procedure:
as §3, §4, §5

A further experiment relates to NO in guard cells. The experiment is described as follows: Detection and quantification of NO (DAF-2 DA fluorescence). The conditions noted are these: 10 μM, leaf epidermal tissue, after 45 min. On the procedure:
as §6

Molecules are shown by their SMILES.

For `CC1=CC(=O)CC(C)(C)[C@@]1(O)/C=C/C(C)=C\C(=O)O` [ABA, abscisic acid], the “effect on stomatal aperture” value in experiment [1] is “no effect on stomatal aperture”; in experiment [2], “induced stomatal closure”; in experiment [3] it was “no effect on stomatal aperture”; in experiment [4] (both estradiol-treated WS wild-type and R2-4A plants), “caused closure”; in experiment [4] (whole leaves, light), “induced stomatal closure”. Besides, the “increase in H2DCFDA fluorescence in guard cells” value with H2O2 in guard cells is reported as 3 fold. Further, the “increase in DAF-2 DA fluorescence in guard cells” value in the experiment on NO in guard cells turned out to be 2.5 fold.
